Measured values reported in PubChem BioAssay AID248 (DTP/NCI, 2004).
“And” between values parts separate entries of the source, which are not always exact repeats. Identical values can stand only once. Inconclusive results and toxic doses are left out.

System: L1210 leukemia ip in BDF1 mice, survival T/C
Assay: NCI In Vivo Anticancer Drug Screen. Data for tumor model L1210 Leukemia (intraperitoneal) in B6D2F1 (BDF1) mice
Details: endpoint: mean survival time, higher = longer survival
How it was run: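 Each compound was tested against a transplantable tumor grown in mice. The endpoint was survival, with treated animals benchmarked against vehicle controls as a simple ratio.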

[1] = dose: 100.0 mg/kg/injection, schedule: Q01DX009 (ip), vehicle: saline
[2] = dose: 100.0 mg/kg/injection, schedule: Q04DX003 (ip), vehicle: Klucel (hydroxypropylcellulose) (HPC)
[3] = dose: 200.0 mg/kg/injection, schedule: Q01DX009 (ip), vehicle: saline
[4] = dose: 200.0 mg/kg/injection, schedule: Q04DX003 (ip), vehicle: Klucel (hydroxypropylcellulose) (HPC)
[5] = dose: 400.0 mg/kg/injection, schedule: Q04DX003 (ip), vehicle: Klucel (hydroxypropylcellulose) (HPC)
[6] = dose: 100.0 mg/kg/injection, schedule: Q01DX001 (ip), vehicle: Klucel (hydroxypropylcellulose) (HPC)
[7] = dose: 200.0 mg/kg/injection, schedule: Q01DX001 (ip), vehicle: Klucel (hydroxypropylcellulose) (HPC)
[8] = dose: 25.0 mg/kg/injection, schedule: Q04DX003 (ip), vehicle: saline with Tween-80
[9] = dose: 100.0 mg/kg/injection, schedule: Q01DX001 (ip), vehicle: saline
[10] = dose: 200.0 mg/kg/injection, schedule: Q01DX001 (ip), vehicle: saline
[11] = dose: 400.0 mg/kg/injection, schedule: Q01DX001 (ip), vehicle: saline
[12] = dose: 100.0 mg/kg/injection, schedule: Q01DX009 (ip), vehicle: saline with Tween-80
[13] = dose: 200.0 mg/kg/injection, schedule: Q01DX009 (ip), vehicle: saline with Tween-80
[14] = dose: 400.0 mg/kg/injection, schedule: Q01DX009 (ip), vehicle: saline with Tween-80
[15] = dose: 100.0 mg/kg/injection, schedule: Q04DX003 (ip), vehicle: saline with Tween-80
[16] = dose: 200.0 mg/kg/injection, schedule: Q04DX003 (ip), vehicle: saline with Tween-80
[17] = dose: 400.0 mg/kg/injection, schedule: Q04DX003 (ip), vehicle: saline with Tween-80
[18] = dose: 100.0 mg/kg/injection, schedule: Q01DX009 (ip), vehicle: Klucel (hydroxypropylcellulose) (HPC)
[19] = dose: 200.0 mg/kg/injection, schedule: Q01DX009 (ip), vehicle: Klucel (hydroxypropylcellulose) (HPC)
[20] = dose: 400.0 mg/kg/injection, schedule: Q01DX009 (ip), vehicle: Klucel (hydroxypropylcellulose) (HPC)
[21] = dose: 50.0 mg/kg/injection, schedule: Q01DX009 (ip), vehicle: Klucel (hydroxypropylcellulose) (HPC)

CC(=O)C(C(C)=O)C(=O)c1ccccc1
T/C (dose: 222.0 mg/kg/injection, schedule: Q01DX Z (ip), vehicle: saline): 100 % of control | T/C (dose: 333.0 mg/kg/injection, schedule: Q01DX Z (ip), vehicle: saline): 90 % of control | T/C (dose: 500.0 mg/kg/injection, schedule: Q01DX Z (ip), vehicle: saline): 103 % of control

COc1cccc(CCNC(=O)CC#N)c1OC
T/C [1]: 90 % of control | T/C [2]: 100 % of control | T/C [3]: 95 % of control | T/C [4]: 102 % of control | T/C [5]: 97 % of control

Cc1ccc(-n2c(=O)c(N=Nc3ccc(Cl)cc3)c(O)n(-c3ccccc3C)c2=S)cc1
T/C [6]: 97 % of control | T/C [7]: 87 % of control | T/C (dose: 400.0 mg/kg/injection, schedule: Q01DX001 (ip), vehicle: Klucel (hydroxypropylcellulose) (HPC)): 92 % of control

O=c1[nH]c2ccccc2nc1CBr
T/C (dose: 12.5 mg/kg/injection, schedule: Q04DX003 (ip), vehicle: saline with Tween-80): 94 % of control | T/C [8]: 89 % of control | T/C (dose: 50.0 mg/kg/injection, schedule: Q04DX003 (ip), vehicle: saline with Tween-80): 86 % of control

CCOC(=O)/C(=C\c1ccccc1)c1nc2ccccc2[nH]1
T/C (dose: 100.0 mg/kg/injection, schedule: Q04DX002 (ip), vehicle: Klucel (hydroxypropylcellulose) (HPC)): 97 % of control | T/C (dose: 200.0 mg/kg/injection, schedule: Q04DX002 (ip), vehicle: Klucel (hydroxypropylcellulose) (HPC)): 101 % of control | T/C (dose: 400.0 mg/kg/injection, schedule: Q04DX002 (ip), vehicle: Klucel (hydroxypropylcellulose) (HPC)): 94 % of control

CCOC(=O)CCC(NC(=O)C1CSC(C)(C)N1C=O)C(=O)OCC (stereo unspecified)
T/C (dose: 100.0 mg/kg/injection, schedule: Q04DX003 (ip), vehicle: saline): 104 % of control | T/C (dose: 200.0 mg/kg/injection, schedule: Q04DX003 (ip), vehicle: saline): 93 % of control | T/C (dose: 400.0 mg/kg/injection, schedule: Q04DX003 (ip), vehicle: saline): 98 % of control

[Cl][Sb]([c]1ccccc1)([c]1ccccc1)([c]1ccccc1)[c]1ccccc1
T/C (dose: 2.4 mg/kg/injection, schedule: Q01DX009 (ip), vehicle: saline): 101 % of control | T/C (dose: 4.7 mg/kg/injection, schedule: Q01DX009 (ip), vehicle: saline): 94 % of control | T/C (dose: 9.4 mg/kg/injection, schedule: Q01DX009 (ip), vehicle: saline): 91 % of control

CSc1ncnc2c1ncn2NCC1OC(C)OCC1O (stereo unspecified)
T/C [6]: 96 % of control | T/C [7]: 98 % of control

NS(=O)(=O)c1ccc(N=Nc2ccc(O)c3ncccc23)cc1
T/C [9]: 101 % of control | T/C [10]: 98 % of control | T/C [11]: 98 % of control

Nc1nc(=S)c2ncn(C3OC(CO)CC3O)c2[nH]1 (stereo unspecified)
T/C (dose: 10.0 mg/kg/injection, schedule: Q01DX009 (ip), vehicle: other): 160 % of control | T/C (dose: 88.8 mg/kg/injection, schedule: Q01DX001 (ip), vehicle: carboxymethylcellulose (CMC)): 162 % of control | T/C (dose: 200.0 mg/kg/injection, schedule: Q01DX001 (ip), vehicle: carboxymethylcellulose (CMC)): 189 % of control

CCCC(=O)Nc1ccc([N+](=O)[O-])cc1OC
T/C [12]: 105 % of control | T/C [13]: 94 % of control | T/C [14]: 94 % of control

CC1CN1CCCNC(=O)C(=O)NCCCN1CC1C (stereo unspecified)
T/C (dose: 12.5 mg/kg/injection, schedule: Q04DX003 (ip), vehicle: saline): 110 % of control | T/C (dose: 50.0 mg/kg/injection, schedule: Q04DX003 (ip), vehicle: saline): 168 % of control

CN1CCC(OC(=O)C(F)(c2ccccc2)c2ccccc2)CC1
T/C (dose: 20.0 mg/kg/injection, schedule: Q01DX001 (ip), vehicle: saline): 98 % of control

CC1=NOC(=O)C1C(C)(C)C1C(=O)ON=C1C (stereo unspecified)
T/C [15]: 101 % of control | T/C [16]: 95 % of control | T/C [17]: 101 % of control

O=C1/C(=C(/c2ccccc2)N2CCOCC2)Cc2ccccc21
T/C [8]: 90 % of control | T/C [15]: 95 % of control

COc1cc(N)c2ncccc2c1
T/C (dose: 15.0 mg/kg/injection, schedule: Q01DX001 (ip), vehicle: saline): 98 % of control | T/C (dose: 30.0 mg/kg/injection, schedule: Q01DX001 (ip), vehicle: saline): 97 % of control | T/C (dose: 75.0 mg/kg/injection, schedule: Q01DX001 (ip), vehicle: carboxymethylcellulose (CMC)): 96 % of control

C/C(CC(O)(C(F)(F)Cl)C(F)(F)Cl)=N\O
T/C [12]: 92 % of control | T/C [15]: 107 % of control | T/C [13]: 97 % of control | T/C [16]: 93 % of control | T/C [17]: 93 % of control

CC1CCC2(C)CCC(C(C)C)C2(O)CC1 (stereo unspecified)
T/C (dose: 50.0 mg/kg/injection, schedule: Q01DX009 (ip), vehicle: saline sonified): 90 % of control | T/C (dose: 100.0 mg/kg/injection, schedule: Q01DX009 (ip), vehicle: saline sonified): 97 % of control | T/C (dose: 100.0 mg/kg/injection, schedule: Q04DX003 (ip), vehicle: saline sonified): 107 % of control | T/C (dose: 200.0 mg/kg/injection, schedule: Q01DX009 (ip), vehicle: saline sonified): 92 % of control | T/C (dose: 200.0 mg/kg/injection, schedule: Q04DX003 (ip), vehicle: saline sonified): 100 % of control

O=C(O)c1cocc1C(=O)N1Cc2cc3ccccc3nc2C1
T/C (dose: 10.0 mg/kg/injection, schedule: Q04DX003 (ip), vehicle: saline): 103 % of control | T/C (dose: 20.0 mg/kg/injection, schedule: Q04DX003 (ip), vehicle: saline): 97 % of control | T/C (dose: 40.0 mg/kg/injection, schedule: Q04DX003 (ip), vehicle: saline): 105 % of control | T/C (dose: 80.0 mg/kg/injection, schedule: Q04DX003 (ip), vehicle: saline): 100 % of control | T/C (dose: 160.0 mg/kg/injection, schedule: Q04DX003 (ip), vehicle: saline): 103 % of control

CCCC(C)C(=O)c1ccccc1 (stereo unspecified)
T/C [18]: 96 % of control | T/C [2]: 103 % of control | T/C [19]: 93 % of control | T/C [4]: 110 % of control | T/C [20]: 96 % of control | T/C [5]: 108 % of control

CCN(CC)c1ccc(N=C2C=C(C(=O)Nc3ccccc3OC)C(=O)c3ccccc32)c(C)c1
T/C [9]: 102 % of control | T/C [10]: 105 % of control | T/C [11]: 96 % of control

ClC(Cl)(Cl)c1nccnc1Br
T/C (dose: 12.5 mg/kg/injection, schedule: Q01DX009 (ip), vehicle: Klucel (hydroxypropylcellulose) (HPC)): 111 % of control | T/C (dose: 25.0 mg/kg/injection, schedule: Q01DX009 (ip), vehicle: Klucel (hydroxypropylcellulose) (HPC)): 94 % of control | T/C [21]: 94 % of control and 104 % of control

CC1CN=C(c2ccc(O)cc2)S1 (stereo unspecified)
T/C (dose: 50.0 mg/kg/injection, schedule: Q01DX009 (ip), vehicle: saline): 102 % of control | T/C (dose: 100.0 mg/kg/injection, schedule: Q01DX005 (ip), vehicle: saline): 104 % of control | T/C [1]: 106 % of control | T/C (dose: 100.0 mg/kg/injection, schedule: Q04DX002 (ip), vehicle: saline): 96 % of control | T/C (dose: 200.0 mg/kg/injection, schedule: Q01DX005 (ip), vehicle: saline): 104 % of control | T/C [3]: 102 % of control | T/C (dose: 200.0 mg/kg/injection, schedule: Q04DX002 (ip), vehicle: saline): 104 % of control | T/C (dose: 400.0 mg/kg/injection, schedule: Q04DX002 (ip), vehicle: saline): 107 % of control

COC(=O)CCNCc1ccccc1
T/C [18]: 103 % of control | T/C [2]: 106 % of control | T/C [19]: 99 % of control | T/C [4]: 98 % of control | T/C [20]: 99 % of control | T/C [5]: 103 % of control

COC(=O)CCCCCC(O)C1CCC2OC(=O)CC21C (stereo unspecified)
T/C [12]: 95 % of control | T/C [2]: 94 % of control | T/C [13]: 95 % of control | T/C [4]: 100 % of control | T/C [14]: 91 % of control | T/C [5]: 93 % of control

CC(=O)c1ccc(OCc2ccccc2)cc1OCC(O)CN1CCN(c2ccc(C)c(C)c2)CC1 (stereo unspecified)
T/C [15]: 97 % of control | T/C [16]: 95 % of control | T/C [17]: 92 % of control

C=CCSCC(=O)c1ccccc1
T/C [21]: 90 % of control | T/C [18]: 94 % of control | T/C [2]: 101 % of control | T/C [19]: 90 % of control | T/C [4]: 97 % of control | T/C [5]: 100 % of control
